From patent US7714146B2, “Azulene-oxindole compounds as multiple-kinase inhibitors and useful as anticancer agents” (Industrial Technology Research Institute, priority 2006, dated 2010)

How the values were obtained:
Type in all cases: biochemical
[1] = target: T1, human VEGFR-2 (Val789-Val1356) (Homo sapiens, UniProt P35968); assay: KDR kinase assay (HTScan VEGFR-2 kit, DELFIA); details: for inhibition at 0.1 µM: compound at 0.1 μM, read-out: KDR 0.1 μM, % of inhibition relative to control; for inhibition at 1 µM: compound at 1 μM, read-out: KDR 1 μM, % of inhibition relative to control
T1 construct: human VEGFR-2 (Val789-Val1356); GST (N); purchased Cell Signaling Technology; host or cells: baculovirus expression system
Experimental: (§1) Compounds 1-100 were treated for their efficacy in inhibiting activities of FLT-3, c-KIT, KDR/Flk-1, PDGFR-beta, EGFR, and PKC kinases by biochemical DELFIA (Dissociation Enhanced Lanthanide FIA) assays according to the procedure described below. The assays were conducted by, Division of Cell Engineering, Biomedical Engineering Research Laboratories, Industrial Technology Research Institute, Bldg. 53, 195, sec. 4, Chung Hsing Rd. Chutung, Hsinchu, Taiwan 310, R.O.C.
(§2) The KDR assay was conducted following the protocol described in Protocol for HTScan® VEGFR-2 Kinase Assay Kit (Cell Signaling Technology®). The assay was conducted under the following conditions: KDR source: The GST-Kinase fusion protein was produced using a baculovirus expression system with a construct expressing human VEGFR-2 (Val789-Val1356) (GenBank Accession No. NM_002253) with an amino-terminal GST tag, substrate: 1.5 μM Gastrin Precursor Biotinylated Peptide (with Tyr87 as phosphorylation site), vehicle: 1% DMSO, pre-incubation time/temperature: 5 minutes at room temperature, incubation time/temperature: 30 minutes at room temperature, incubation buffer: 60 mM HEPES pH 7.5, 5 mM MgCl2, 5 mM MnCl2, 3 μM Na3VO4, 1.25 mM DTT, 20 μM ATP, and quantitative method: DELFIA® Assay.

[2] = target: T2, human FLT-3 (Arg571-Ser993) (Homo sapiens, UniProt P36888); assay: FLT-3 kinase assay (HTScan kit, DELFIA); details: for inhibition at 0.1 µM: compound at 0.1 μM, read-out: FLT-3 0.1 μM, % of inhibition relative to control; for inhibition at 1 µM: compound at 1 μM, read-out: FLT-3 1 μM, % of inhibition relative to control
T2 construct: human FLT-3 (Arg571-Ser993); GST (N); purchased Cell Signaling Technology; host or cells: baculovirus expression system
T2 sequence (P36888 571-993): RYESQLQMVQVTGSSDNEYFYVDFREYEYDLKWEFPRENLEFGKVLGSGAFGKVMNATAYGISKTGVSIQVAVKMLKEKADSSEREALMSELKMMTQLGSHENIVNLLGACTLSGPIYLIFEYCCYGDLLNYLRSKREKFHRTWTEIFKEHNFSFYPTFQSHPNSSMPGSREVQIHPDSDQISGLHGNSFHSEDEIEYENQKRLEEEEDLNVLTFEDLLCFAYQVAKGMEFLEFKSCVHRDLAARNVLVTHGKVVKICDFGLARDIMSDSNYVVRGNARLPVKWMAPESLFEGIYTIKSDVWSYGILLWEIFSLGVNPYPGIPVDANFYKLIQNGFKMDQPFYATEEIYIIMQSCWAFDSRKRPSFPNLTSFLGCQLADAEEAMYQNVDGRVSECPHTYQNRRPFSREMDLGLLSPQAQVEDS
Experimental: as §1
as §2, with “FLT-3” for “KDR”, “FLT-3” for “VEGFR-2”, “GST-kinase” for “GST-Kinase”, “FLT-3 (Arg571-Ser993)” for “VEGFR-2 (Val789-Val1356)”, “accession” for “Accession”, “NM_004119)” for “NM_002253)”

[3] = target: T3, human c-KIT (Thr544-Val976) (Homo sapiens, UniProt P10721); assay: c-KIT kinase assay (HTScan kit, DELFIA); details: for inhibition at 0.1 µM: compound at 0.1 μM, read-out: c-KIT 0.1 μM, % of inhibition relative to control; for inhibition at 1 µM: compound at 1 μM, read-out: c-KIT 1 μM, % of inhibition relative to control
T3 construct: human c-KIT (Thr544-Val976); GST (N); purchased Cell Signaling Technology; host or cells: baculovirus expression system
Experimental: as §1
as §2, with “c-KIT” for “KDR”, “c-KIT” for “VEGFR-2”, “GST-c-KIT” for “GST-Kinase”, “c-KIT (Thr544-Val976)” for “VEGFR-2 (Val789-Val1356) (GenBank Accession No. NM_002253)”, “This biotinylated peptide contains the residues surrounding Tyr-996 of KDR,” for “Gastrin Precursor Biotinylated Peptide (with Tyr87 as phosphorylation site),”

T3 sequence (P10721 544-976): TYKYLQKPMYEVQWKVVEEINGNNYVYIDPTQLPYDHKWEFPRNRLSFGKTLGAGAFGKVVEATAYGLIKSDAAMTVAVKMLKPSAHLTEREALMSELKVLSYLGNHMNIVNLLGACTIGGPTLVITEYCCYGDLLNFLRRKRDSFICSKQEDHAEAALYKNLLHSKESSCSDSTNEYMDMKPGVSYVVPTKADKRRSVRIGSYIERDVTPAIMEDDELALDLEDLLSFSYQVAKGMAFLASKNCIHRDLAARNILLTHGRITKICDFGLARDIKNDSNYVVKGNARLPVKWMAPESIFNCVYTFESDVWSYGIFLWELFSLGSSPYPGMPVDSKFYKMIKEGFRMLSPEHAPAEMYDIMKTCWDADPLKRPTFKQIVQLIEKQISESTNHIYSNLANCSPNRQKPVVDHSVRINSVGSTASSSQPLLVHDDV
T1 sequence (P35968 789-1356): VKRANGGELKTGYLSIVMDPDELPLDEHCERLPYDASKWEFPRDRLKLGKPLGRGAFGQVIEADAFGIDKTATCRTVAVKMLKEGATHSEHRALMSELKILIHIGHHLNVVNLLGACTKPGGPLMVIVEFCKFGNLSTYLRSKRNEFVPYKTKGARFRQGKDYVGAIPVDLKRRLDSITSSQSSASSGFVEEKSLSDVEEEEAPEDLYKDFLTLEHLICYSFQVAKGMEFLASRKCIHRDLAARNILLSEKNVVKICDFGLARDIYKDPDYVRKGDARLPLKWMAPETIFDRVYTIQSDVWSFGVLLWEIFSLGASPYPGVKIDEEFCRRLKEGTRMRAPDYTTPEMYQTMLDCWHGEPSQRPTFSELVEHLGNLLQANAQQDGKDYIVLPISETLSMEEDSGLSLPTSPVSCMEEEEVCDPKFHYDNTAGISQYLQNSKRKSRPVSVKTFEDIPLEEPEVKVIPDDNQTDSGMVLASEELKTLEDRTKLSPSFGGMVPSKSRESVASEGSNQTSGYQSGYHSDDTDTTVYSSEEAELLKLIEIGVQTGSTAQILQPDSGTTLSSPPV

| Compound | inhibition at 0.1 µM [1] [%] | inhibition at 1 µM [1] [%] | inhibition at 0.1 µM [2] [%] | inhibition at 1 µM [2] [%] | inhibition at 0.1 µM [3] [%] | inhibition at 1 µM [3] [%] | IC50 ([1]; read-out: KDR kinase inhibition (IC50)) [nM] | IC50 ([2]; read-out: FLT-3 kinase inhibition (IC50)) [nM] | IC50 ([3]; read-out: c-KIT kinase inhibition (IC50)) [nM] |
| --- | --- | --- | --- | --- | --- | --- | --- | --- | --- |
| CN(C)Cc1cc(/C=C2/C(=O)Nc3ccccc32)c2cccccc1-2 [Compound 58, 3-(3-Dimethylaminomethyl-azulen-1-ylmethylene)-1,3-dihydro-indol-2-one] | 12.1 | 23.8 | 16.5 | 43.9 | 18 | 18 | – | – | – |
| CN(C)Cc1c(/C=C2/C(=O)Nc3ccc(F)cc32)cc2cccccc1-2 [Compound 59, 3-(1-Dimethylaminomethyl-azulen-2-ylmethylene)-5-fluoro-1,3-dihydro-indol-2-one] | 19.9 | 28.5 | 43 | 49.8 | 24.2 | 24.2 | – | – | – |
| O=C1Nc2ccc(F)cc2/C1=C/c1cc(F)c2cccccc1-2 [Compound 60, 5-Fluoro-3-(3-fluoro-azulen-1-ylmethylene)-1,3-dihydro-indol-2-one] | 55.6 | 40.3 | 52.6 | 52.8 | 28.3 | 28.3 | – | – | – |
| O=C1Nc2ccc(F)cc2/C1=C/c1c(Br)c2cccccc-2c1Br [Compound 61, 3-(1,3-Dibromo-azulen-2-ylmethylene)-5-fluoro-1,3-dihydro-indol-2-one] | 44.2 | 52.6 | 62.5 | 42.5 | 30.5 | 30.5 | – | – | – |
| O=C1Nc2ccc(F)cc2/C1=C/c1c2cccccc-2oc1=O [Compound 62, 5-Fluoro-3-(2-oxo-2H-cyclohepta[b]furan-3-ylmethylene)-1,3-dihydro-indol-2-one] | 21.9 | 35.1 | 68.3 | 74.9 | 45.6 | 45.6 | – | – | – |
| Cc1[nH]c(/C=C2\C(=O)Nc3ccc(F)cc32)c2ccc(=O)ccc12 [Compound 63, 1-(5-Fluoro-2-oxo-1,2-dihydro-indol-3-ylidenemethyl)-3-methyl-2H-cyclohepta[c]pyrrol-6-one] | 6.7 | 32.2 | 50.5 | 55.7 | 57.1 | 57.1 | – | – | – |
| Nc1cc2cccccc-2c1C=C1C(=O)Nc2ccc(F)cc21 [Compound 64, 3-(2-Amino-azulen-1-ylmethylene)-5-fluoro-1,3-dihydro-indol-2-one] | 46.5 | 47.8 | 68.3 | 74.9 | 34.2 | 34.2 | – | – | – |
| CN(C)Cc1cc(/C=C2/C(=O)Nc3ccc(F)cc32)c2cccccc1-2 [Compound 65, 3-(3-Dimethylaminomethyl-azulen-1-ylmethylene)-5-fluoro-1,3-dihydro-indol-2-one] | 46.8 | 46.9 | 23.3 | 30.9 | 51.3 | 51.3 | – | – | – |
| Cc1c2cccccc-2c(C)c1/C=C1/C(=O)Nc2ccc(F)cc21 [Compound 66, 3-(1,3-Dimethyl-azulen-2-ylmethylene)-5-fluoro-1,3-dihydro-indol-2-one] | 14.8 | 40.6 | 15.8 | 19.6 | 33.7 | 33.7 | – | – | – |
| CN(C)CCNC(=O)c1cc(/C=C2/C(=O)Nc3ccc(F)cc32)c2cccccc1-2 [Compound 67, 3-(5-Fluoro-2-oxo-1,2-dihydro-indol-3-ylidenemethyl)-azulene-1-carboxylic acid (2-dimethylamino-ethyl)-amide] | – | 7.4 | – | 14 | 30.2 | 30.2 | – | – | – |

Other lines, results leading:

| inhibition at 0.1 µM [1] [%] | inhibition at 1 µM [1] [%] | inhibition at 0.1 µM [2] [%] | inhibition at 1 µM [2] [%] | inhibition at 0.1 µM [3] [%] | inhibition at 1 µM [3] [%] | IC50 ([1]; read-out: KDR kinase inhibition (IC50)) [nM] | IC50 ([2]; read-out: FLT-3 kinase inhibition (IC50)) [nM] | IC50 ([3]; read-out: c-KIT kinase inhibition (IC50)) [nM] | Compound |
| --- | --- | --- | --- | --- | --- | --- | --- | --- | --- |
| 38.6 | 63.8 | 74.3 | 96.8 | 34.4 | 34.4 | 500 | 25.3 | > 1000 | Cc1cc(/C=C2/C(=O)Nc3ccc(F)cc32)c2ccccc(OCCCN(C)C)c1-2 [Compound 68, 3-[4-(3-Dimethylamino-propoxy)-3-methyl-azulen-1-ylmethylene]-5-fluoro-1,3-dihydro-indol-2-one] |
| 30.2 | 32 | 17.6 | 19.7 | 29.6 | 29.6 | – | – | – | CCc1cc(C=C2C(=O)Nc3ccc(F)cc32)c2cccccc1-2 [Compound 80, 3-(3-Ethyl-azulen-1-ylmethylene)-5-fluoro-1,3-dihydro-indol-2-one] |
| 33 | 36.6 | 19.1 | 43.5 | 48.7 | 48.7 | – | – | – | CC(C)c1cc(C=C2C(=O)Nc3ccc(F)cc32)c2cccccc1-2 [Compound 81, 5-Fluoro-3-(3-isopropyl-azulen-1-ylmethylene)-1,3-dihydro-indol-2-one] |
| 17.6 | 18.5 | 12.8 | 13.5 | 30.7 | 30.7 | – | – | – | Cc1cc(C=C2C(=O)Nc3ccc(S(=O)(=O)NCCCN4CCN(C)CC4)cc32)c2cccccc1-2 [Compound 82, 3-(3-Methyl-azulen-1-ylmethylene)-2-oxo-2,3-dihydro-1H-indole-5-sulfonic acid [3-(4-methyl-piperazin-1-yl)-propyl]-amide] |
| 20.8 | 26.7 | 10.5 | 17.7 | 19.6 | 19.6 | – | – | – | CCc1cc(C=C2C(=O)Nc3ccc(S(=O)(=O)NCCCN4CCN(C)CC4)cc32)c2cccccc1-2 [Compound 83, 3-(3-Ethyl-azulen-1-ylmethylene)-2-oxo-2,3-dihydro-1H-indole-5-sulfonic acid [3-(4-methyl-piperazin-1-yl)-propyl]-amide] |
| – | 4.4 | – | 2 | 2.4 | 2.4 | – | – | – | CCOC(=O)N1CCC(Nc2ccc3c(c2)/C(=C\c2cc(C)c4c(OCCCN(C)C)ccccc2-4)C(=O)N3)CC1 [Compound 85, 4-{3-[4-(3-Dimethylamino-propoxy)-3-methyl-azulen-1-ylmethylene]-2-oxo-2,3-dihydro-1H-indol-5-ylamino}-piperidine-1-carboxylic acid ethyl ester] |
